From patent US6034065A, “Elucidation and synthesis of antineoplastic tetrapeptide phenethylamides of dolastatin 10” (Arizona Board of Regents, priority 1992, dated 2000)

Experiments:
Format in all cases: cell-based
human cancer cell line = assay: Human cancer cell line activity compared to dolastatin 10
SF-295 = assay: NCI human cancer cell line test, CNS SF-295
Source text: (§1) Only two hundred years ago, many diseases ravaged humankind. Many of these diseases have been controlled or eradicated. In the development of the means to treat or control these diseases, work with the appropriate common experimental animals was of critical importance. With the various types of cancers, and with the HIV virus, such work is presently ongoing. The research for the treatment of various types of cancer is coordinated by the National Cancer Institute (NCI).NCI, as a government entity, has been charged with assisting anti-cancer research. To establish whether a substance has anti cancer activity, NCI has established a protocol. This protocol, which involves testing a substance against a cell line panel containing 60 human tumor cell lines, has been verified, and is accepted in scientific circles. This protocol, and the established statistical means of evaluating the results obtained therefrom have been amply described in the literature. See e.g. Principles & Practice of Oncology PPO Updates, Volume 3, Number 10, October 1989, by Michael R. Boyd, M.D., Ph.D., for a description of the protocol. The statistical analysis is explained in "Display and Analysis of Patterns of Differential Activity of Drugs Against Human Tumor Cell Lines: Development of Mean Graph and COMPARE Algorithm" Journal of the National Cancer Institute Reports Vol. 81, No. 14, Pg. 1088, Jul. 14, 1989, by K. D. Paull et al. Both articles are incorporated herein by this reference as if fully set forth.
(§2) The structural modifications of dolastatin 10 whose design and synthesis are described herein were evaluated for antineoplastic activity. This evaluation was conducted using the standard protocols established by National Cancer Institute (NCI) as described above. These protocols do evaluate whether the substances in question have antineoplastic activity against certain human cancer cell lines derived from human cancer patients. Substantial activity was found in those compounds tested. The antineoplastic activity of the compounds is reported below in Table 1. The results of the 60 cell line NCI in vitro testing of compound 6b conducted Jun. 22, 1992, is reported below in Table 2.

P-388 = assay: Mouse leukemia cell P-388 growth inhibition
Procedure: as §2

KM20L2 = assay: NCI human cancer cell line test, Colon KM20L2
Source text: as §1, §2

NCI-460 = assay: NCI human cancer cell line test, Lung-NSC NCI-460
Source text: as §1, §2

A498 = assay: NCI human cancer cell line test, Renal A498
Source text: as §1, §2

OVCAR-3 = assay: NCI human cancer cell line test, Ovarian OVCAR-3
Source text: as §1, §2

SK-MEL-3 = assay: NCI human cancer cell line test, Melanoma SK-MEL-3
Source text: as §1, §2

Row | Substance | human cancer cell line activity as compared to dolastatin 10 (human cancer cell line) | GI-50 (SF-295) [µg/mL] | LC-50 (SF-295) [µg/mL] | TGI (SF-295) [ng/mL] | ED-50 (P-388) [mg/mL] | GI-50 (KM20L2) [µg/mL] | LC-50 (KM20L2) [µg/mL] | TGI (KM20L2) [ng/mL] | GI-50 (NCI-460) [µg/mL] | LC-50 (NCI-460) [µg/mL] | TGI (NCI-460) [ng/mL] | GI-50 (A498) [µg/mL] | LC-50 (A498) [µg/mL] | TGI (A498) [ng/mL] | GI-50 (OVCAR-3) [µg/mL] | LC-50 (OVCAR-3) [µg/mL] | TGI (OVCAR-3) [ng/mL] | GI-50 (SK-MEL-3) [µg/mL] | LC-50 (SK-MEL-3) [µg/mL] | TGI (SK-MEL-3) [ng/mL]
1 | R-Doe-isodolastatin 10 | did not show any significant difference | – | – | – | – | – | – | – | – | – | – | – | – | – | – | – | – | – | – | –
2 | [2S-[1[1R*(R*),2S*],2R*[1S*,2S*]]]-N,N-dimethyl-L-valyl-N-[2-methoxy-4-[2- [1-methoxy-2-methyl-3-oxo-3-[[2-phenyl-ethyl]amino]propyl]-1-pyrrolidinyl-1-(methylpropyl)-4-oxobutyl]-N-methyl-L-valineamide [Compound 6b] | – | 0.000014 | < 0.0001 | 0.042 | 0.0005 | 0.000005 | < 0.0001 | < 0.1 | 0.000005 | < 0.0001 | < 0.1 | 0.000013 | < 0.0001 | < 0.1 | 0.000004 | < 0.0001 | 0.027 | 0.000012 | < 0.0001 | < 0.1
3 | [2S-[1[1R*(R*),2S*],2R*[1S*,2S*]]]-N,N-dimethyl-L-valyl-N-[2-methoxy-4-[2- [1-methoxy-2-methyl-3-oxo-3-[[3-phenyl-propyl]amino]propyl]-1-pyrrolidinyl- 1-(methylpropyl)-4-oxobutyl]-N-methyl-L-valineamide [Compound 6c] | – | 0.00028 | < 0.01 | 0.79 | 0.00044 | 0.00033 | < 0.01 | < 10 | 0.00031 | < 0.01 | < 10 | 0.00039 | < 0.01 | < 10 | 0.00018 | < 0.01 | 0.54 | 0.00031 | < 0.01 | < 10
4 | [2S-[1[1R*(R*),2S*],2R*[1S*,2S*]]]-N,N-dimethyl-L-valyl-N-[2-methoxy-4-[2- [1-methoxy-2-methyl-3-oxo-3-benzylamino-propyl]-1-pyrrolidinyl-1-(methylpropyl)-4-oxobutyl]-N-methyl-L-valineamide [Compound 6a] | – | < 0.0001 | < 0.0001 | < 0.1 | 0.00378 | < 0.0001 | < 0.0001 | < 0.1 | < 0.0001 | < 0.0001 | < 0.1 | < 0.0001 | < 0.0001 | < 0.1 | < 0.0001 | < 0.0001 | < 0.1 | < 0.0001 | < 0.0001 | < 0.1
